Reference: patent publication US20070275925A1, “ASTHMA DIAGNOSIS AND THERAPY” (REGENTS OF THE UNIVERSITY OF CALIFORNIA, priority 2006, published 2007)

Experiments:
[1] = test system: Periostin; assay: Periostin immunohistochemistry in bronchial biopsies with design-based stereology; assay type: in vivo, human; settings: one week of treatment with fluticasone
Text: Periostin protein expression was confirmed by immunohistochemistry in bronchial biopsies from a subset of asthmatic and healthy control subjects. Periostin immunolocalized to the subepithelium in all subjects, and quantification confirmed increased expression in asthma (FIG. 3). The degree of immunostaining in asthmatics was not decreased by one week of treatment with fluticasone (FIG. 6, supplementary appendix). Paraffin-embedded sections were deparaffinized and re-hydrated to water. Next, all sections were incubated in 3% hydrogen peroxide/absolute methanol for 10 minutes to block endogenous peroxidase activity. […] Biopsies were formalin-fixed and paraffin-embedded and then analyzed using methods of tissue immunohistochemistry (described above) and design-based stereology.^6 First, the volume of immunohistochemical staining, the volume of submucosal tissue surveyed, and the surface area of the epithelial basal lamina surveyed were determined by point and intersection counting using an integrated microscope (Olympus; Albertslund, Denmark), video camera (JVC Digital Color, JVC A/S; Tatstrup, Denmark), automated microscope stage, and computer (Dell Optiplex GS270 PC running Computer-Assisted Stereology Toolbox [C.A.S.T.] […] Points overlying submucosal tissue that is immunostained and unstained were counted separately along with intersections of test lines with basal lamina. […]

[2] = Lung function (FEV1) in the clinical trial; assay type: in vivo, human; settings: by one week, sustained at 4 weeks and 8 weeks; inhaled fluticasone 500 μg twice daily
Protocol: In three cross sectional studies and a clinical trial, epithelial brushings were collected by bronchoscopy from 42 subjects with asthma, 16 current smokers without asthma, and 28 healthy controls. Cross-sectional studies comprised 2 visits, the first for characterization and the second for bronchoscopy. The clinical trial was a 10 week, randomized, double-blind, placebo-controlled trial specifically designed to determine the effects of inhaled fluticasone (500 μg twice daily) on airway gene expression and to relate gene expression changes to improvements in lung function (FIG. 1). Bronchoscopy was performed at baseline and repeated 1 week after starting study drug. Thirty-five subjects had adequate baseline bronchoscopy and 32 had RNA available from epithelial brushings at both bronchoscopies. Lung function was measured at intervals over the 8-week treatment period. […] Spirometry was measured at baseline, before both bronchoscopies, at 4 and 8 weeks after starting study medication, and after the one week run-out according to American Thoracic Society criteria using a dry rolling-seal spirometer (Model VRS2000, PDS Instrumentation, S&M Instrument Co., Doylestown, Pa.). Methacholine responsiveness was measured at baseline and at 4 and 8 weeks after starting study medication using a five-breath dosimeter method (modified from Chai et al).^5

CCC(=O)O[C@]1(C(=O)SCF)[C@H](C)C[C@H]2[C@@H]3C[C@H](F)C4=CC(=O)C=C[C@]4(C)[C@@]3(F)[C@@H](O)C[C@@]21C [fluticasone, fluticasone propionate]
Degree of periostin immunostaining in bronchial biopsies of asthmatics [1]: not decreased
Improvement in FEV1 versus placebo [2]: greater improvements in FEV1 than placebo
